In the experiment the target is T1, STAT3 (Homo sapiens, UniProt P40763).
T1 construct: expressed in transfected cells; host or cells: A549
In words: STAT3 HiBiT degradation assay (Nano-Glo HiBiT lytic detection) in transfected A549 cells. It is filed as cell-based. The procedure: Example 1. HiBiT Assay Protocol
Compound preparation and Cell seeding: The transfected A549 cells were harvested from dish into cell culture medium and cell numbers counted. Cells were diluted with culture medium to the desired density and 30 μL of cell suspension (about 2000 cells/well) were added into each well of a 384-well cell culture plate as designated and transferred into 37° C. 5% CO2 incubator for 24 h. Compounds were dissolved to 10 mM stock solution and 12 μL of the stock solution was transferred to a 384 LDV-plate. 3 fold, 10-point dilution was performed by transferring 4 μL compound into 8 μL DMSO using a TECAN (EVO200) liquid handler. 30 μl of diluted compound from compound source plate was transferred into the cell plate as designated by using Echo550 and transferred into 37° C. 5% CO2 incubator for 24 h.
Detection: Plates were removed from incubators and equilibrated at room temperature for 15 minutes. Nano-Glo Hibit Lytic Detection reagent (Promega Cat #N3040) was thawed and equilibrated to room temperature before the experiment. 30 μL of Nano-Glo Hibit Lytic Detection reagent was added into each well to be detected. The plates were held at room temperature for 10 min followed by reading on EnSpire.
Data analysis: The remaining activity was calculated following the formula: Remaining Activity (%)=100%×(Lumsample−LumNC)/(LumPC−LumNC). Calculate the IC50 by fitting the curve using Xlfit (v5.3.1.3), equation 201: fit=(A+((B−A)/(1+((x/C)^D)))); A: Botton; B: Top; C: IC50; and D: Slope.
The letter codes for STAT3 DC50 include: A (<0.01 μM), B (0.01-0.1 μM), C (0.1-1.0 μM), and D (>1.0 μM).

Setting [1] is: 24 h compound incubation, read-out: STAT3 HiBIT A549 degradation 24 h: Average external-Abs DC50.

Where two headings read alike, the source gives them in different places.

T1 sequence (P40763 whole entry): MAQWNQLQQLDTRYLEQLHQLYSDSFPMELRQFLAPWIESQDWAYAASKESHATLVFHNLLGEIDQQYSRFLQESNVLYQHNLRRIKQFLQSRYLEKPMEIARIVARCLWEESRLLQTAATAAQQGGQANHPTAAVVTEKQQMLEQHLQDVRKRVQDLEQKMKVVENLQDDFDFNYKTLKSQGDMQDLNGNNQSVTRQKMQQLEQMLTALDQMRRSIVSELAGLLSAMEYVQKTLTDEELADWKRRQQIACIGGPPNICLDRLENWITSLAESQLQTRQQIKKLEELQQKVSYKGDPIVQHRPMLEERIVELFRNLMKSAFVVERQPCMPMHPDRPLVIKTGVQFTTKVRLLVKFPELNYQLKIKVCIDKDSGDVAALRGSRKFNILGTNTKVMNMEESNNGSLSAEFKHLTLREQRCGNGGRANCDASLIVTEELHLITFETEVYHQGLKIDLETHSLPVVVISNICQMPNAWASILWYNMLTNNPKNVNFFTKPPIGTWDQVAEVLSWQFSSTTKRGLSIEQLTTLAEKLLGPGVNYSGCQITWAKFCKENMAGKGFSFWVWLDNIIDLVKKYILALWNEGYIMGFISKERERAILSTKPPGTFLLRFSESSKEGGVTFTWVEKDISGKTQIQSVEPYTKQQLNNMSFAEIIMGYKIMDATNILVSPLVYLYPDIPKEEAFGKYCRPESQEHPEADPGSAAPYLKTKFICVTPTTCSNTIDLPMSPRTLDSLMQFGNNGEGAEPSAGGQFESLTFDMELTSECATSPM

As to `CC(C)c1ccc(CNC(=O)[C@H](CCC(=O)O)NC(=O)[C@@H]2CC[C@@H]3CCN(C(=O)[C@H]4CC[C@@H](CCc5ccc6c(c5)n(C)c(=O)n6C5CCC(=O)NC5=O)CC4)C[C@H](NC(=O)c4cc5cc(C(=O)P(=O)(O)O)ccc5[nH]4)C(=O)N32)cc1` (stereo partly drawn) [I-96, (4S)-4-[[(5S,8S,10aR)-6-oxo-5-[5-(phosphonocarbonyl)-1H-indole-2-amido]-3-[(1s,4s)-4-[2-[1-(2,6-dioxopiperidin-3-yl)-3-methyl-2-oxo-1,3-benzodiazol-5-yl]ethyl]cyclohexanecarbonyl]-octahydropyrrolo[1,2-a][1,5]diazocin-8-yl]formamido]-4-[[(4-isopropylphenyl)methyl]carbamoyl]butanoic acid], the DC50 (usually the concentration giving 50% degradation) under setting [1] is more than 1000 nM. In the case of `Cc1ncsc1-c1ccc([C@H](C)NC(=O)[C@@H]2C[C@@H](O)CN2C(=O)[C@@H](NC(=O)CCCc2cccc(OC[C@H](CCC(N)=O)NC(=O)[C@@H]3CC[C@@H]4CCCC[C@H](NC(=O)c5cc6cc(C(=O)P(=O)(O)O)ccc6[nH]5)C(=O)N43)c2Cl)C(C)(C)C)cc1` [I-2], under setting [1], the DC50 was less than 10 nM.

For `COC(=O)N1CC[C@H]2CC[C@@H](C(=O)N[C@@H](CCC(N)=O)COc3cccc(CCCC(=O)N[C@H](C(=O)N4C[C@H](O)C[C@H]4C(=O)N[C@@H](C)c4ccc(-c5scnc5C)cc4)C(C)(C)C)c3Cl)N2C(=O)[C@@H](NC(=O)c2cc3cc(C(F)(F)P(=O)(O)O)ccc3[nH]2)C1` [I-84], under setting [1], the DC50 was more than 1000 nM. With `Cc1ncsc1-c1ccc([C@H](C)NC(=O)[C@@H]2C[C@@H](O)CN2C(=O)[C@@H](NC(=O)CC2CCC(c3cccc(OC[C@H](CCC(N)=O)NC(=O)[C@@H]4Cc5cccc6c5N4C(=O)[C@@H](NC(=O)c4cc5cc(C(=O)P(=O)(O)O)ccc5[nH]4)CC6)c3Cl)CC2)C(C)(C)C)cc1` (stereo partly shown) [I-56], the DC50 under setting [1] lay in the range of 100 to 1000 nM. The same measure, in the same setting: with `Cn1c(=O)n(C2CCC(=O)NC2=O)c2ccc(CCCCc3cccc(OC[C@H](CCC(N)=O)NC(=O)[C@@H]4CC[C@@H]5CCCC[C@H](NC(=O)c6cc7cc(C(=O)P(=O)(O)O)ccc7[nH]6)C(=O)N54)c3Cl)cc21` (stereo partly shown) [I-32] the figure was more than 1000 nM; with `Cn1c(=O)n(C2CCC(=O)NC2=O)c2ccc(C[C@H]3CC[C@@H](CC(=O)N4CC[C@H]5CC[C@@H](C(=O)N[C@@H](CCC(N)=O)C(=O)NCc6ccc(S(C)(=O)=O)cc6)N5C(=O)[C@@H](NC(=O)c5cc6cc(C(=O)O)ccc6[nH]5)C4)CC3)cc21` (stereo partly drawn) [I-75, 2-[[(5S,8S,10aR)-8-[[(1S)-3-carbamoyl-1-[[(4-methanesulfonylphenyl)methyl]carbamoyl]propyl]carbamoyl]-6-oxo-3-[2-[(1s,4s)-4-[[1-(2,6-dioxopiperidin-3-yl)-3-methyl-2-oxo-1,3-benzodiazol-5-yl]methyl]cyclohexyl]acetyl]-octahydropyrrolo[1,2-a][1,5]diazocin-5-yl]carbamoyl]-1H-indole-5-carboxylic acid], more than 1000 nM.

As for `Cc1ncsc1-c1ccc(C2(NC(=O)[C@@H]3C[C@@H](O)CN3C(=O)[C@@H](NC(=O)CCCc3cccc(OC[C@H](CCC(N)=O)NC(=O)[C@@H]4Cc5cccc6c5N4C(=O)[C@@H](NC(=O)c4cc5cc(C(=O)P(=O)(O)O)ccc5[nH]4)CC6)c3Cl)C(C)(C)C)CC2)cc1` [I-71], the 50% degradation concentration (DC50) under setting [1] is 10 to 100 nM.

For the molecule `Cn1c(=O)n(C2CCC(=O)NC2=O)c2ccc(CC[C@H]3CC[C@H](C(=O)N4CC[C@H]5CC[C@@H](C(=O)N[C@@H](CCC(N)=O)C(=O)NCc6ccc(S(C)(=O)=O)cc6)N5C(=O)[C@@H](NC(=O)c5cc6cc(C(=O)P(=O)(O)O)ccc6[nH]5)C4)CC3)cc21` (stereo partly shown) [I-73], the DC50 under setting [1] fell in the range of 10 to 100 nM. `CN1C(=O)CCC(n2c(=O)n(C)c3cc(C[C@H]4CC[C@@H](CC(=O)N5CC[C@H]6CC[C@@H](C(=O)N[C@@H](CCC(N)=O)C(=O)NC(c7ccccc7)c7ccccc7)N6C(=O)[C@@H](NC(=O)c6cc7cc(C(=O)P(=O)(O)O)ccc7[nH]6)C5)CC4)ccc32)C1=O` (stereo partly shown) [I-64]: the DC50 under setting [1] is more than 1000 nM. With `Cc1ncsc1-c1ccc([C@H](C)NC(=O)[C@@H]2C[C@@H](O)CN2C(=O)[C@@H](NC(=O)CCCc2cccc(OC[C@H](CCC(N)=O)NC(=O)[C@@H]3CC[C@@H]4CCCC[C@H](NC(=O)c5cc6cc(C(F)(F)P(=O)(O)O)ccc6s5)C(=O)N43)c2Cl)C(C)(C)C)cc1` [I-89], for the setting “read-out: STAT3 HiBIT A549 degradation 24 h: Average external-Abs DC50, 24 h compound incubation”, the DC50 was more than 1000 nM. For the molecule `Cn1c(=O)n(C2CCC(=O)NC2=O)c2ccc(CCCCCCc3cc4c5c(c3)C[C@@H](C(=O)N[C@@H](CCC(N)=O)C(=O)NCc3ccc(S(C)(=O)=O)cc3)N5C(=O)[C@@H](NC(=O)c3cc5cc(C(=O)P(=O)(O)O)ccc5[nH]3)CC4)cc21` (stereo partly drawn) [I-81, (2-(((3S,6S)-6-(((S)-5-amino-1l-((4-(methylsulfonyl)benzyl)amino)-1,5-dioxopentan-2-yl)carbamoyl)-9-(6-(1-(2,6-dioxopiperidin-3-yl)-3-methyl-2-oxo-2,3-dihydro-1H-benzo[d]imidazol-5-yl)hexyl)-4-oxo-1,2,3,4,6,7-hexahydroazepino[3,2,1-hi]indol-3-yl)carbamoyl)-1H-indole-5-carbonyl)phosphonic acid], the half-maximal degradation concentration (DC50) under setting [1] was in the range of 10 to 100 nM. On the same count and under the same terms, with `Cn1c(=O)n(C2CCC(=O)NC2=O)c2ccc(C[C@H]3CC[C@@H](CC(=O)N4CC[C@H]5CC[C@@H](C(=O)NC(C)(C)CCC(N)=O)N5C(=O)[C@@H](NC(=O)c5cc6cc(C(=O)P(=O)(O)O)ccc6[nH]5)C4)CC3)cc21` (stereo partly shown) [I-26] the figure was more than 1000 nM; with `CNC(=O)[C@@H]1Cc2cc(CCCCCCc3ccc4c(c3)n(C)c(=O)n4C3CCC(=O)NC3=O)cc3c2N1C(=O)[C@@H](NC(=O)c1cc2cc(C(=O)P(=O)(O)O)ccc2[nH]1)CC3` (stereo partly shown) [I-20], more than 1000 nM. On the same count and under the same terms, with `CC(C)c1ccc(CNC(=O)[C@H](CCC(N)=O)NC(=O)[C@@H]2CC[C@@H]3CCN(C(=O)[C@H]4CC[C@@H](CCc5ccc6c(c5)n(C)c(=O)n6C5CCC(=O)NC5=O)CC4)C[C@H](NC(=O)c4cc5cc(C(=O)P(=O)(O)O)ccc5[nH]4)C(=O)N32)c(Cl)c1` (stereo partly drawn) [I-35, 2-[[(5S,8S,10aR)-8-[[(1S)-3-Carbamoyl-1-[[(2-chloro-4-isopropylphenyl)methyl]carbamoyl]propyl]carbamoyl]-6-oxo-3-[(1r,4s)-4-[2-[1-(2,6-dioxopiperidin-3-yl)-3-methyl-2-oxo-1,3-benzodiazol-5-yl]ethyl]cyclohexanecarbonyl]-octahydropyrrolo[1,2-a][1,5]diazocin-5-yl]carbamoyl]-1H-indole-5-carbonylphosphonic acid] the figure was 10 to 100 nM; with `Cc1ncsc1-c1ccc([C@H](C)NC(=O)[C@@H]2C[C@@H](O)CN2C(=O)[C@@H](NC(=O)CCCc2cccc(OC[C@H](CCC(N)=O)NC(=O)[C@@H]3CC[C@@H]4CCCC[C@H](NC(=O)c5cc6cc(C(=O)P(=O)(O)O)ccc6[nH]5)C(=O)N43)c2F)C(C)(C)C)cc1` [I-9], less than 10 nM. Still for that read-out and setting: with `CC(=O)N1CC[C@H]2CC[C@@H](C(=O)N[C@@H](CCC(N)=O)COc3cccc(CCCC(=O)N[C@H](C(=O)N4C[C@@H](O)C[C@H]4C(=O)N[C@@H](C)c4ccc(-c5scnc5C)cc4)C(C)(C)C)c3Cl)N2C(=O)[C@@H](NC(=O)c2cc3cc(C(=O)P(=O)(O)O)ccc3[nH]2)C1` [I-42] the figure was more than 1000 nM; with `Cc1ncsc1-c1ccc([C@H](C)NC(=O)[C@@H]2C[C@@H](O)CN2C(=O)[C@@H](NC(=O)CCCCc2cccc(OC[C@H](CCC(N)=O)NC(=O)[C@@H]3CC[C@@H]4CCCC[C@H](NC(=O)c5cc6cc(C(=O)P(=O)(O)O)ccc6[nH]5)C(=O)N43)c2F)C(C)(C)C)cc1` [I-3], less than 10 nM. As to `CC(=O)N1CC[C@H]2CC[C@@H](C(=O)N[C@@H](CCC(N)=O)COc3cc(C)cc(CCCCCC(=O)N[C@H](C(=O)N4C[C@@H](O)C[C@H]4C(=O)N[C@@H](C)c4ccc(-c5scnc5C)cc4)C(C)(C)C)c3F)N2C[C@@H](NC(=O)c2cc3cc(C(=O)P(=O)(O)O)ccc3[nH]2)C1` [I-23], under setting [1], the DC50 was more than 1000 nM. `Cc1ncsc1-c1ccc([C@H](C)NC(=O)[C@@H]2C[C@@H](O)CN2C(=O)[C@@H](NC(=O)CC2CCC(c3cccc(OC[C@H](CCC(N)=O)NC(=O)[C@@H]4Cc5cccc6c5N4C(=O)[C@@H](NC(=O)c4cc5cc(C(=O)P(=O)(O)O)ccc5[nH]4)CC6)c3Cl)CC2)C(C)(C)C)cc1` (stereo partly shown) [I-55]: the DC50 under setting [1] fell in the range of 10 to 100 nM. As for `Cc1ncsc1-c1ccc([C@H](C)NC(=O)[C@@H]2C[C@@H](O)CN2C(=O)[C@@H](NC(=O)CCCc2cccc(OC[C@H](CCC(N)=O)NC(=O)[C@@H]3CCCN3C(=O)[C@@H](NC(=O)c3cc4cc(C(=O)P(=O)(O)O)ccc4[nH]3)C(C)(C)C)c2Cl)C(C)(C)C)cc1` [I-14], under setting [1], the DC50 was in the range of 100 to 1000 nM. As for `CNC(=O)CC[C@@H](C)NC(=O)[C@@H]1Cc2cc(CCCCCCc3ccc4c(c3)n(C)c(=O)n4C3CCC(=O)NC3=O)cc3c2N1C(=O)[C@@H](NC(=O)c1cc2cc(C(=O)P(=O)(O)O)ccc2[nH]1)CC3` (stereo partly shown) [I-22], the 50% degradation concentration (DC50) under setting [1] was more than 1000 nM. On the same count and under the same terms, with `Cn1c(=O)n(C2CCC(=O)NC2=O)c2ccc(CCCCCCC(=O)N3CC[C@H]4CC[C@@H](C(=O)N[C@@H](CCC(N)=O)C(=O)NCc5ccc(S(C)(=O)=O)cc5)N4C(=O)[C@@H](NC(=O)c4cc5cc(C(=O)P(=O)(O)O)ccc5[nH]4)C3)cc21` (stereo partly shown) [I-76] the figure was 10 to 100 nM.

The record behind these values is US20240016942A1, “STAT DEGRADERS AND USES THEREOF” (Kymera Therapeutics, Inc., priority 2020, published 2024).
